In EP0398425A1, “Antirhinoviral piperidinyl, pyrrolidinyl and piperazinyl alkylphenol ethers” (JANSSEN PHARMACEUTICA N.V., priority 1989, dated 1990):
Values after ≈ are worked out from the molar mass of the structure shown.

Assays:
[1] = tested on: Human Rhinovirus serotypes HRV- 2,-29,-39,-85,-9,-15,-51,-59,-63,-89,-41; experiment: Picornavirus Minimal Inhibitory Concentration Test (cytopathic effect reduction assay), first panel of rhinoviruses; type: cell-based; settings: Human rhinovirus sp.; medium value of the IC50-values of all serotypes of the first panel; Ohio Hela cells, 3 to 5 days at 33°C; IC50 = concentration protecting 50% of the cells from cytopathic effects; read-out: Med₁
Experimental: (§1) The Minimal Inhibitory Concentration of the compounds of the present invention against the Human Rhinovirus strains (HRV) -2,-9,-14,-15,-29,-39,-41,-42,-45,-51, -59, -63,-70,-72,-85,-86 and -89 was determined by a standard cytopathic effect reduction assay as follows. To each of the ninty six (96) wells of a microtiter 96 well tissue culture plate there was added 60 µl of a Ohio Hela cell maintenance medium [Eagle's Basal medium supplemented with 5% Foetal Calf Serum (FCS)]. To two wells there was added 60 µl of an appropriate starting dilution of a compound of formula (I) and two-fold dilutions were made to cover a wide range of compound concentrations. Subsequently there were added 120 µl of an infectious solution of virus in Eagle's Basal Medium with 2% Hepes buffer, 2% FCS and 30 mM MgCl₂ to all wells except cell and compound controls. Said infectious virus solution having a TCID₅₀-value (Tissue Culture Infectious Dose) of about 100.
(§2) The TCID₅₀-value is the dose of viruses which initiates a cytopathic effect in 50% of the inoculated cells. 150 µl of the thus obtained virus-compound mixtures were then transferred to microtitre plates with subconfluent Ohio Hela Cells, grown in 100 µl of maintenance medium. Appropriate virus controls, cell controls and compound controls were included in each test. Plates were incubated for 3 to 5 days at 33°C in 5% CO₂ atmosphere. […] The IC₅₀-value for each virus-compound series was taken as the concentration in ng/ml that protected 50% of the cells from cytopathic effects with respect to the untreated controls. In the standard test procedure, the compounds were tested against two panels of rhinoviruses, a first panel consisting of serotypes HRV- 2,-29,-39,-85,-9,-15,-51,-59,-63,-89,-41 and the other panel consisting of HRV-42,-45,-14,-70,-72 and -86.
(§3) The IC₅₀-value for each rhinovirus serotype was determined, and the efficacy of each compound was determined in terms of the Med₁-value and Med₂-value, which is the medium value of the IC₅₀-values of all serotypes from the first and second panel respectively.

[2] = tested on: Human Rhinovirus serotypes HRV-42,-45,-14,-70,-72 and -86; experiment: Picornavirus Minimal Inhibitory Concentration Test (cytopathic effect reduction assay), second panel of rhinoviruses; type: cell-based; settings: Human rhinovirus sp., HRV42; medium value of the IC50-values of all serotypes of the second panel; Ohio Hela cells, 3 to 5 days at 33°C; IC50 = concentration protecting 50% of the cells from cytopathic effects; read-out: Med₂
Experimental: as §1, §2, §3

IC50 [1]	IC50 [2]	Structure (SMILES)
0.011 µg/mL (≈ 0.0237 µM)	0.244 µg/mL (≈ 0.525 µM)	CCc1noc(-c2ccc(OCCC3CCN(c4nnc(Br)s4)CC3)cc2)n1 [Compound 61]
0.006 µg/mL (≈ 0.0136 µM)	0.0705 µg/mL (≈ 0.16 µM)	CCOC(=O)c1ccc(OCCC2CCN(c3nnc(Br)s3)CC2)cc1 [Compound 17]
0.031 µg/mL (≈ 0.0717 µM)	0.4 µg/mL (≈ 0.925 µM)	CCOC(=O)c1ccc(OCCC2CCN(c3nc(C(=O)OCC)cs3)CC2)cc1 [Compound 6]
0.376 µg/mL (≈ 0.999 µM)	0.172 µg/mL (≈ 0.457 µM)	CCOC(=O)c1ccc(OCCCN2CCN(c3nncs3)CC2)cc1 [Compound 35]
0.144 µg/mL (≈ 0.351 µM)	0.25 µg/mL (≈ 0.609 µM)	CCOC(=O)c1ccc(OCCC2CCN(c3nsc4ccccc34)CC2)cc1 [Compound 19, ethyl 4-[2-[1-(1,2-benzisothiazol-3-yl)-4-piperidinyl]ethoxy]benzoate]
0.312 µg/mL (≈ 0.758 µM)	0.027 µg/mL (≈ 0.0656 µM)	CCOC(=O)c1ccc(OCCN2CCN(c3nc4ccccc4s3)CC2)cc1 [Compound 46, ethyl 4-[2-[4-(2-benzothiazolyl)-1-piperazinyl]ethoxy]benzoate]
0.01 µg/mL (≈ 0.0266 µM)	0.035 µg/mL (≈ 0.0932 µM)	CCOC(=O)c1ccc(OCCC2CCN(c3nnc(C)s3)CC2)cc1 [Compound 13, ethyl 4-[2-[1-(5-methyl-1,3,4-thiadiazol-2-yl)-4-piperidinyl]ethoxy]benzoate]
0.088 µg/mL (≈ 0.203 µM)	0.009 µg/mL (≈ 0.0208 µM)	CCOC(=O)c1ccc(OCCN2CCN(c3nc(C(=O)OCC)cs3)CC2)cc1 [Compound 34, ethyl 2-[4-[2-[4-(ethoxycarbonyl)phenoxy]ethyl]-1-piperazinyl]-4-thiazolecarboxylate]
0.175 µg/mL (≈ 0.384 µM)	0.037 µg/mL (≈ 0.0813 µM)	CCOC(=O)c1ccc(OCCCN2CCN(c3nnc(Br)s3)CC2)cc1 [Compound 29]
0.053 µg/mL (≈ 0.12 µM)	0.344 µg/mL (≈ 0.777 µM)	CCOC(=O)c1ccc(OCCC2CCN(C3=NS(=O)(=O)c4ccccc43)CC2)cc1 [Compound 14]
0.156 µg/mL (≈ 0.349 µM)	0.097 µg/mL (≈ 0.217 µM)	CCOC(=O)c1ccc(OCCCN2CCN(c3nc(C(=O)OCC)cs3)CC2)cc1 [Compound 49]
0.044 µg/mL (≈ 0.0997 µM)	0.011 µg/mL (≈ 0.0249 µM)	CCOC(=O)c1ccc(OCCN2CCN(c3nnc(Br)s3)CC2)cc1 [Compound 27]
